Measured values as given in patent publication US20210045385A1, “PYRIDAZINONE-SUBSTITUTED KETOXIMES AS HERBICIDES” (FMC Corporation, priority 2018, published 2021).

Columns and labels:
Assay type in all cases: in vivo
[1] = test system: ragweed (common ragweed, Ambrosia elatior); experiment: Test A postemergence, visual plant response rating; details: for Ragweed plant response rating (0 to 100 scale): 500 g ai/ha, postemergence, 0 is no effect, 100 is complete control; for Ragweed plant response rating: Postemergence, 125 g ai/ha, 0 to 100 scale (0 no effect, 100 complete control)
Method in brief: (§1)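 Greenhouse evaluation, approx. 10 days post-spray. Soil: loam + sand. Postemergence stage: 1–2 leaves, height 2–10 cm. Vehicle: non-phytotoxic solvent blend with surfactant. Score: visual injury on a 0 (no effect) to 100 (complete control) scale.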

kochia (Kochia scoparia) [2] = experiment: Test A postemergence, visual plant response rating; details: for Kochia plant response rating (0 to 100 scale): 500 g ai/ha, postemergence, 0 is no effect, 100 is complete control; for Kochia plant response rating: Postemergence, 125 g ai/ha, 0 to 100 scale (0 no effect, 100 complete control)
Method in brief: as §1

[3] = test system: foxtail, giant (giant foxtail, Setaria faberii); experiment: Test A postemergence, visual plant response rating; details: for Foxtail, Giant plant response rating (0 to 100 scale): 500 g ai/ha, postemergence, 0 is no effect, 100 is complete control; for Foxtail, Giant plant response rating: Postemergence, 125 g ai/ha, 0 to 100 scale (0 no effect, 100 complete control)
Method in brief: as §1

[4] = test system: galium (catchweed bedstraw, Galium aparine); experiment: Test A postemergence, visual plant response rating; details: for Galium plant response rating (0 to 100 scale): 500 g ai/ha, postemergence, 0 is no effect, 100 is complete control; for Galium plant response rating: Postemergence, 125 g ai/ha, 0 to 100 scale (0 no effect, 100 complete control)
Method in brief: as §1

[5] = test system: wheat (Triticum aestivum); experiment: Test A postemergence, visual plant response rating; details: for Wheat plant response rating (0 to 100 scale): 500 g ai/ha, postemergence, 0 is no effect, 100 is complete control; for Wheat plant response rating: Postemergence, 125 g ai/ha, 0 to 100 scale (0 no effect, 100 complete control)
Method in brief: as §1

[6] = test system: Italian ryegrass (Lolium multiflorum); experiment: Test A postemergence, visual plant response rating; details: for Ryegrass, Italian plant response rating (0 to 100 scale): 500 g ai/ha, postemergence, 0 is no effect, 100 is complete control; for Ryegrass, Italian plant response rating: Postemergence, 125 g ai/ha, 0 to 100 scale (0 no effect, 100 complete control)
Method in brief: as §1

corn (Zea mays) = experiment: Test A postemergence, visual plant response rating; details: for Corn plant response rating (0 to 100 scale): 500 g ai/ha, postemergence, 0 is no effect, 100 is complete control; for Corn plant response rating: Postemergence, 125 g ai/ha, 0 to 100 scale (0 no effect, 100 complete control)
Method in brief: as §1

[7] = test system: blackgrass (Alopecurus myosuroides); experiment: Test A postemergence, visual plant response rating; details: for Blackgrass plant response rating (0 to 100 scale): 500 g ai/ha, postemergence, 0 is no effect, 100 is complete control; for Blackgrass plant response rating: Postemergence, 125 g ai/ha, 0 to 100 scale (0 no effect, 100 complete control)
Method in brief: as §1

[8] = test system: barnyardgrass (Echinochloa crus-galli); experiment: Test A postemergence, visual plant response rating; details: for Barnyardgrass plant response rating (0 to 100 scale): 500 g ai/ha, postemergence, 0 is no effect, 100 is complete control; for Barnyardgrass plant response rating: Postemergence, 125 g ai/ha, 0 to 100 scale (0 no effect, 100 complete control)
Method in brief: as §1

[9] = test system: pigweed (Amaranthus retroflexus); experiment: Test A postemergence, visual plant response rating; details: for Pigweed plant response rating (0 to 100 scale): 500 g ai/ha, postemergence, 0 is no effect, 100 is complete control; for Pigweed plant response rating: Postemergence, 125 g ai/ha, 0 to 100 scale (0 no effect, 100 complete control)
Method in brief: as §1

[10] = test system: sedge, umbrella (small-flower umbrella sedge, Cyperus difformis); experiment: Test B flooded paddy test, visual plant response rating; details: 250 g ai/ha, Flood, applied to paddy water, 2-leaf stage, evaluated after 13 to 15 days
Method in brief: (§2)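 At the two-leaf stage, seedlings received compound applied to paddy water flooded 3 cm above soil, a level sustained until assessment. Greenhouse incubation lasted 13 to 15 days before visual comparison with control plants.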

rice (Oryza sativa) = experiment: as above; details: 250 g ai/ha, Flood, applied to paddy water, 2-leaf stage, evaluated after 13 to 15 days
Method in brief: as §2

[11] = test system: barnyardgrass (Echinochloa crus-galli); experiment: as above; details: 250 g ai/ha, Flood, applied to paddy water, 2-leaf stage, evaluated after 13 to 15 days
Method in brief: as §2

[12] = test system: ducksalad (Heteranhera limosa); experiment: as above; details: 250 g ai/ha, Flood, applied to paddy water, 2-leaf stage, evaluated after 13 to 15 days
Method in brief: as §2

[13] = test system: ragweed (common ragweed, Ambrosia elatior); experiment: Test A preemergence, visual plant response rating; details: for Ragweed plant response rating: 125 g ai/ha, preemergence, 0 to 100 scale, 0 no effect, 100 complete control; for Ragweed plant response rating (0 to 100 scale): 500 g ai/ha Preemergence, approx. 10 days
Method in brief: as §1

kochia (Kochia scoparia) [14] = experiment: Test A preemergence, visual plant response rating; details: for Kochia plant response rating: 125 g ai/ha, preemergence, 0 to 100 scale, 0 no effect, 100 complete control; for Kochia plant response rating (0 to 100 scale): 500 g ai/ha Preemergence, approx. 10 days
Method in brief: as §1

[15] = test system: foxtail, giant (giant foxtail, Setaria faberii); experiment: Test A preemergence, visual plant response rating; details: for Foxtail, Giant plant response rating: 125 g ai/ha, preemergence, 0 to 100 scale, 0 no effect, 100 complete control; for Foxtail, Giant plant response rating (0 to 100 scale): 500 g ai/ha Preemergence, approx. 10 days
Method in brief: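 Formulated in a non-phytotoxic solvent mixture including surfactant, each test chemical was sprayed onto the soil surface after sowing, or onto seedlings 2 to 10 cm high. Roughly 10 days later, plants were compared with untreated controls and rated for injury from 0 (no effect) to 100 (complete control).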

[16] = test system: Italian ryegrass (Lolium multiflorum); experiment: Test A preemergence, visual plant response rating; details: for Ryegrass, Italian plant response rating: 125 g ai/ha, preemergence, 0 to 100 scale, 0 no effect, 100 complete control; for Ryegrass, Italian plant response rating (0 to 100 scale): 500 g ai/ha Preemergence, approx. 10 days
Method in brief: as §1

[17] = test system: barnyardgrass (Echinochloa crus-galli); experiment: Test A preemergence, visual plant response rating; details: for Barnyardgrass plant response rating: 125 g ai/ha, preemergence, 0 to 100 scale, 0 no effect, 100 complete control; for Barnyardgrass plant response rating (0 to 100 scale): 500 g ai/ha Preemergence, approx. 10 days
Method in brief: as §1

[18] = test system: pigweed (Amaranthus retroflexus); experiment: Test A preemergence, visual plant response rating; details: for Pigweed plant response rating: 125 g ai/ha, preemergence, 0 to 100 scale, 0 no effect, 100 complete control; for Pigweed plant response rating (0 to 100 scale): 500 g ai/ha Preemergence, approx. 10 days
Method in brief: as §1

Row | SMILES | Ragweed plant response rating (0 to 100 scale) [1] | Ragweed plant response rating [1] | Kochia plant response rating (0 to 100 scale) (kochia (Kochia scoparia) [2]) | Kochia plant response rating (kochia (Kochia scoparia) [2]) | Foxtail, Giant plant response rating (0 to 100 scale) [3] | Foxtail, Giant plant response rating [3] | Galium plant response rating (0 to 100 scale) [4] | Galium plant response rating [4] | Wheat plant response rating (0 to 100 scale) [5] | Wheat plant response rating [5] | Ryegrass, Italian plant response rating (0 to 100 scale) [6] | Ryegrass, Italian plant response rating [6] | Corn plant response rating (0 to 100 scale) (corn (Zea mays)) | Corn plant response rating (corn (Zea mays)) | Blackgrass plant response rating (0 to 100 scale) [7] | Blackgrass plant response rating [7] | Barnyardgrass plant response rating (0 to 100 scale) [8] | Barnyardgrass plant response rating [8] | Pigweed plant response rating (0 to 100 scale) [9] | Pigweed plant response rating [9] | other results
1 | Cc1nn(C)c(=O)c(C(=NOCC=CCl)c2ccc(F)c3ccccc23)c1O [Compound 107] | 90 | 80 | 60 | 30 | 80 | 70 | 90 | 70 | 40 | 0 | 90 | 70 | 20 | 0 | 80 | 80 | 90 | 80 | 100 | 80 | Plant response rating, Sedge, Umbrella (0 to 100 scale, 0 is no effect, 100 is complete control) [10]: 0; Plant response rating, Rice (0 to 100 scale, 0 is no effect, 100 is complete control) (rice (Oryza sativa)): 0; Plant response rating, Barnyardgrass (0 to 100 scale, 0 is no effect, 100 is complete control) [11]: 0; Plant response rating, Ducksalad (0 to 100 scale, 0 is no effect, 100 is complete control) [12]: 0; Ragweed plant response rating [13]: 20; Ragweed plant response rating (0 to 100 scale) [13]: 80; Kochia plant response rating (kochia (Kochia scoparia) [14]): 0; Kochia plant response rating (0 to 100 scale) (kochia (Kochia scoparia) [14]): 30; Foxtail, Giant plant response rating [15]: 80; Foxtail, Giant plant response rating (0 to 100 scale) [15]: 100; Ryegrass, Italian plant response rating [16]: 70; Ryegrass, Italian plant response rating (0 to 100 scale) [16]: 90; Barnyardgrass plant response rating [17]: 70; Barnyardgrass plant response rating (0 to 100 scale) [17]: 90; Pigweed plant response rating [18]: 60; Pigweed plant response rating (0 to 100 scale) [18]: 80
2 | CO/N=C(\c1sccc1C)c1c(O)c(C)nn(C)c1=O [Compound 42] | 50 | 40 | 50 | 20 | 10 | 0 | 60 | 70 | 0 | 0 | 70 | 50 | 0 | 0 | 0 | 0 | 10 | 0 | 80 | 60 | Plant response rating, Sedge, Umbrella (0 to 100 scale, 0 is no effect, 100 is complete control) [10]: 20; Plant response rating, Rice (0 to 100 scale, 0 is no effect, 100 is complete control) (rice (Oryza sativa)): 10; Plant response rating, Barnyardgrass (0 to 100 scale, 0 is no effect, 100 is complete control) [11]: 15; Plant response rating, Ducksalad (0 to 100 scale, 0 is no effect, 100 is complete control) [12]: 20; Ragweed plant response rating [13]: 60; Ragweed plant response rating (0 to 100 scale) [13]: 80; Kochia plant response rating (kochia (Kochia scoparia) [14]): 0; Kochia plant response rating (0 to 100 scale) (kochia (Kochia scoparia) [14]): 10; Foxtail, Giant plant response rating [15]: 0; Foxtail, Giant plant response rating (0 to 100 scale) [15]: 0; Ryegrass, Italian plant response rating [16]: 0; Ryegrass, Italian plant response rating (0 to 100 scale) [16]: 20; Barnyardgrass plant response rating [17]: 0; Barnyardgrass plant response rating (0 to 100 scale) [17]: 0; Pigweed plant response rating [18]: 0; Pigweed plant response rating (0 to 100 scale) [18]: 20
3 | CCCc1ccccc1/C(=N\OC)c1c(O)c(C)nn(C)c1=O [Compound 92] | 70 | 60 | 60 | 30 | 60 | 50 | 70 | 70 | 0 | 0 | 60 | 50 | 10 | 0 | 70 | 20 | 40 | 20 | 80 | 60 | Plant response rating, Sedge, Umbrella (0 to 100 scale, 0 is no effect, 100 is complete control) [10]: 0; Plant response rating, Rice (0 to 100 scale, 0 is no effect, 100 is complete control) (rice (Oryza sativa)): 0; Plant response rating, Barnyardgrass (0 to 100 scale, 0 is no effect, 100 is complete control) [11]: 0; Plant response rating, Ducksalad (0 to 100 scale, 0 is no effect, 100 is complete control) [12]: 0; Ragweed plant response rating [13]: 20; Ragweed plant response rating (0 to 100 scale) [13]: 30; Kochia plant response rating (kochia (Kochia scoparia) [14]): 0; Kochia plant response rating (0 to 100 scale) (kochia (Kochia scoparia) [14]): 10; Foxtail, Giant plant response rating [15]: 70; Foxtail, Giant plant response rating (0 to 100 scale) [15]: 80; Ryegrass, Italian plant response rating [16]: 40; Ryegrass, Italian plant response rating (0 to 100 scale) [16]: 80; Barnyardgrass plant response rating [17]: 30; Barnyardgrass plant response rating (0 to 100 scale) [17]: 60; Pigweed plant response rating [18]: 30; Pigweed plant response rating (0 to 100 scale) [18]: 90
